ChEMBL document CHEMBL5724914, “Linking interpersonal differences in gut microbiota composition and drug biotransformation activity” (2024)

Key:
[1] = (§1) The drug is tested on Z-027 corresponding to metagenome with ENA study accession number: PRJEB37062 and ENA sample accession number: ERS12561826 for biotransformation under anaerobic condition. The drug concentrations were measured over 9 timepoints collected between 0 and 24 hours of incubation by liquid-chromatography-coupled mass spectrometry (LC–MS); conditions: 2 µM
[2] = (§2) The drug is tested on Z-024 corresponding to pig gut metagenome with ENA study accession number: PRJEB37062 and ENA sample accession number: ERS12561823 for biotransformation under anaerobic condition. The drug concentrations were measured over 9 timepoints collected between 0 and 24 hours of incubation by liquid-chromatography-coupled mass spectrometry (LC–MS); conditions: 2 µM
[3] = as §2, with “Z-019” for “Z-024”, “rat” for “pig”, “ERS12561818” for “ERS12561823”; conditions: 2 µM
[4] = as §2, with “Z-018” for “Z-024”, “ERS12561817” for “ERS12561823”; conditions: 2 µM
[5] = as §2, with “Z-017” for “Z-024”, “mouse” for “pig”, “ERS12561816” for “ERS12561823”; conditions: 2 µM
[6] = as §1, with “Z-012” for “Z-027”, “ERS12561812” for “ERS12561826”; conditions: 2 µM
[7] = as §1, with “Z-010” for “Z-027”, “ERS12561810” for “ERS12561826”; conditions: 2 µM
[8] = as §2, with “Z-009” for “Z-024”, “ERS12561809” for “ERS12561823”; conditions: 2 µM
[9] = as §2, with “Z-003” for “Z-024”, “ERS12561803” for “ERS12561823”; conditions: 2 µM
[10] = as §2, with “WLS-370” for “Z-024”, “human” for “pig”, “ERS12561793” for “ERS12561823”; conditions: 2 µM
[11] = as §2, with “WLS-310” for “Z-024”, “human” for “pig”, “ERS12561785” for “ERS12561823”; conditions: 2 µM
[12] = as §2, with “WLS-240” for “Z-024”, “human” for “pig”, “ERS12561773” for “ERS12561823”; conditions: 2 µM
[13] = as §2, with “WLS-052” for “Z-024”, “human” for “pig”, “ERS12561747” for “ERS12561823”; conditions: 2 µM
[14] = as §2, with “WLS-010” for “Z-024”, “human” for “pig”, “ERS12561743” for “ERS12561823”; conditions: 2 µM
[15] = human gut metagenome, 24 h, 2 µM
[16] = human gut metagenome, 24 h, 2 µM; remark: listed apart in the source
[17] = human gut metagenome, 24 h, 2 µM; remark: listed apart in the source
[18] = human gut metagenome, 24 h, 2 µM; remark: listed apart in the source
[19] = human gut metagenome, 24 h, 2 µM; remark: listed apart in the source
[20] = human gut metagenome, 24 h, 2 µM; remark: listed apart in the source
Note: call rule not given here.

Structure (SMILES)	Bacterial Biotransformation [1]	Bacterial Biotransformation [2]	Bacterial Biotransformation [3]	Bacterial Biotransformation [4]	Bacterial Biotransformation [5]	Bacterial Biotransformation [6]	Bacterial Biotransformation [7]	Bacterial Biotransformation [8]	Bacterial Biotransformation [9]	Bacterial Biotransformation [10]	Bacterial Biotransformation [11]	Bacterial Biotransformation [12]	Bacterial Biotransformation [13]	Bacterial Biotransformation [14]	Bacterial Biotransformation [15]	Bacterial Biotransformation [16]	Bacterial Biotransformation [17]	Bacterial Biotransformation [18]	Bacterial Biotransformation [19]	Bacterial Biotransformation [20]
Br.CN(C)CCCC1(c2ccc(F)cc2)OCc2cc(C#N)ccc21 (stereo not given) [CITALOPRAM HYDROBROMIDE]	Compound NOT metabolized	Compound NOT metabolized	Compound NOT metabolized	Compound NOT metabolized	Compound NOT metabolized	Compound NOT metabolized	Compound metabolized	Compound metabolized	Compound NOT metabolized	Compound metabolized	Compound metabolized	Compound metabolized	Compound NOT metabolized	Compound NOT metabolized	Compound NOT metabolized	Compound metabolized	Compound metabolized	Compound metabolized	Compound metabolized	Compound metabolized
CN(C)CCC=C1c2ccccc2C=Cc2ccccc21 [CYCLOBENZAPRINE]	Compound NOT metabolized	Compound metabolized	Compound NOT metabolized	Compound metabolized	Compound NOT metabolized	Compound NOT metabolized	Compound metabolized	Compound metabolized	Compound metabolized	Compound metabolized	Compound metabolized	Compound metabolized	Compound metabolized	Compound metabolized	Compound metabolized	Compound metabolized	Compound metabolized	Compound metabolized	Compound metabolized	Compound metabolized
O=C(Nc1ccccc1)OCC(CN1CCCCC1)OC(=O)Nc1ccccc1 (stereo not given) [DIPERODON]	Compound NOT metabolized	Compound metabolized	Compound NOT metabolized	Compound NOT metabolized	Compound NOT metabolized	Compound NOT metabolized	Compound metabolized	Compound metabolized	Compound metabolized	Compound NOT metabolized	Compound metabolized	Compound metabolized	Compound NOT metabolized	Compound metabolized	Compound metabolized	Compound metabolized	Compound NOT metabolized	Compound NOT metabolized	Compound metabolized	Compound metabolized
CC(C)N(CCC(C(N)=O)(c1ccccc1)c1ccccn1)C(C)C.O=P(O)(O)O (stereo not given) [DISOPYRAMIDE PHOSPHATE]	Compound NOT metabolized	Compound NOT metabolized	Compound NOT metabolized	Compound NOT metabolized	Compound NOT metabolized	Compound NOT metabolized	Compound NOT metabolized	Compound NOT metabolized	Compound NOT metabolized	Compound NOT metabolized	Compound metabolized	Compound NOT metabolized	Compound NOT metabolized	Compound NOT metabolized	Compound NOT metabolized	Compound NOT metabolized	Compound NOT metabolized	Compound NOT metabolized	Compound metabolized	Compound metabolized
